Laboratory results published in PMC11423540, “Synthesis and biological evaluation of ortho-phenyl phenylhydroxamic acids containing phenothiazine with improved selectivity for class IIa histone deacetylases” (Journal of Enzyme Inhibition and Medicinal Chemistry, 2024).
Read-outs that look alike come from different tables or passages of the source.

What was measured:
HDAC9 = HDAC9 (Homo sapiens, UniProt Q9UKV0); assay: HDAC inhibition assay, HDAC9
SCC2095 cells [1] = assay: Cell viability (MTT) assay, SCC2095; assay type: cell-based; conditions: 48 h, human oral cancer cells, read-out: IC50 of cytotoxicity SCC2095
Description: Human breast cancer MDA-MB-231 cells and gastric cancer SCM-1 cells were purchased from the American Type Culture Collection (Manasas, VA, USA). SCC2095 human oral cancer cells were kindly provided by Professor Susan R. Mallery (The Ohio State University).
To assess cell viability, cells were seeded in three replicates into 96-well plates at a density of 5×10^3/well for 24 h following incubation with compounds at the indicated concentrations. Then, cell viability was assessed with 3–(4,5-dimethylthiazol-2-yl)-2,5-diphenyltetrazolium bromide (MTT) solution (0.5 mg/mL) for 4h as described previously. After removing the medium, 200 µL of DMSO was added, and then the absorbance was measured at 570 nm using a plate reader (BMG LABTECH, Germany).

HDAC6 = biological target: T1, HDAC6 (Homo sapiens, UniProt Q9UBN7); assay: HDAC inhibition assay, HDAC6
T1 sequence (Q9UBN7 1-1215): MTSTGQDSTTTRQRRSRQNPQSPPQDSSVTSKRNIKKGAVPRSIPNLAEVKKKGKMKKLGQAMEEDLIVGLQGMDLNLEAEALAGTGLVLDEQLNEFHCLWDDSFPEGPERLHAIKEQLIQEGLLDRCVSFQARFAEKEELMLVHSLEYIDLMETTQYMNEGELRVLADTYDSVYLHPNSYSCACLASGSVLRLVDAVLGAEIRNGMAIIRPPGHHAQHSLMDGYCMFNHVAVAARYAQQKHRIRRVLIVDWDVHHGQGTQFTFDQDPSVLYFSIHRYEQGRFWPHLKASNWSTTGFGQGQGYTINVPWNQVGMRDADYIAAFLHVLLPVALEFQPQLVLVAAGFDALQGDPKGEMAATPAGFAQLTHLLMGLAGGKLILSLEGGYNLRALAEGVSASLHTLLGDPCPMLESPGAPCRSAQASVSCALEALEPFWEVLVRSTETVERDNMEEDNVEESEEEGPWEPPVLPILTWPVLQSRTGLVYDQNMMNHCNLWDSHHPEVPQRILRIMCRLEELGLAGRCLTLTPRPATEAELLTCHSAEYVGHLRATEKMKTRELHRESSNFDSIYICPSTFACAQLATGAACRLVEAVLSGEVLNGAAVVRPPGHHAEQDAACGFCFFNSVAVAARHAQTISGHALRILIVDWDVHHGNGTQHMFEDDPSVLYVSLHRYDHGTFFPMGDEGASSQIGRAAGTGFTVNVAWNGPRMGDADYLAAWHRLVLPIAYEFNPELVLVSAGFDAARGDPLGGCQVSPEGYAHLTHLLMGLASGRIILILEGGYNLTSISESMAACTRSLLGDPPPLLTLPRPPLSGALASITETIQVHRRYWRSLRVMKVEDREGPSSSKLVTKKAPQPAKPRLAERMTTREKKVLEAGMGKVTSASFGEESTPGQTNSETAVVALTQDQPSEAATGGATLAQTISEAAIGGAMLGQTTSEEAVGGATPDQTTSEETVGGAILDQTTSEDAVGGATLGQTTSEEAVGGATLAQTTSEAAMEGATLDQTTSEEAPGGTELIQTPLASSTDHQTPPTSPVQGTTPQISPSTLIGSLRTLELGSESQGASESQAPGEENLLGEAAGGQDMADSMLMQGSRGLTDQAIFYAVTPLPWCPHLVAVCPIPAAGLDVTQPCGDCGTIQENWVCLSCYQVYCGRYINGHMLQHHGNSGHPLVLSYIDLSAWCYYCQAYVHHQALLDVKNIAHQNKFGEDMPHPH

HDAC7 = biological target: T2, HDAC7 (Homo sapiens, UniProt Q8WUI4); assay: HDAC inhibition assay, HDAC7
T2 sequence (Q8WUI4 1-952): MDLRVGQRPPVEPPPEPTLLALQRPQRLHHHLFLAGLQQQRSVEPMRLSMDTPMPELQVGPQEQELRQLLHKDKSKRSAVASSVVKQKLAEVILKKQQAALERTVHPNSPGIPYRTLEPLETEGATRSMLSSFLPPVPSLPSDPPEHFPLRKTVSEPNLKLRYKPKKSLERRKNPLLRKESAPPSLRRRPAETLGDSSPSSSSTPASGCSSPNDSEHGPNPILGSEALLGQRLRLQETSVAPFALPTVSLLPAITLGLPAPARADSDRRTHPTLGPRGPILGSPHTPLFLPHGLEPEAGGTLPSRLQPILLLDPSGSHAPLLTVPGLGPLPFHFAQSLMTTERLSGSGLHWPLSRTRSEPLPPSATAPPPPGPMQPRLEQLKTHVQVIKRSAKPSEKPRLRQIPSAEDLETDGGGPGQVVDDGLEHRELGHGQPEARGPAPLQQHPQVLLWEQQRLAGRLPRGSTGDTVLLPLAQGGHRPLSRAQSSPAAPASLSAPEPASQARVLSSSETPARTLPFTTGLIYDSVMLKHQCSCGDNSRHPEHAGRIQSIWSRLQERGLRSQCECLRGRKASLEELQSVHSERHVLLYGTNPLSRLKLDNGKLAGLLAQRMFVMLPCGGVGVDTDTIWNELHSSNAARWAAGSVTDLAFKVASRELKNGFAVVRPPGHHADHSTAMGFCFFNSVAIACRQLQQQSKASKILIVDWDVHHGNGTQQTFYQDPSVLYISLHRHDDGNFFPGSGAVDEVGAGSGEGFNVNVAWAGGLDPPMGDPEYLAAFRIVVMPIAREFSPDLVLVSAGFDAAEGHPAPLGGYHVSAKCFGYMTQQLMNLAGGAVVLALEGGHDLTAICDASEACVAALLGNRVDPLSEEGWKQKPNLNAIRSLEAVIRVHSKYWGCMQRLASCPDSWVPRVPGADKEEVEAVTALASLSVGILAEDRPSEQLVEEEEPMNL

HeLa nuclear HDACs = assay: HDAC inhibition assay, HeLa nuclear extract (mixture of class I HDACs 1, 2, and 3); conditions: read-out: IC50 HeLa nuclear HDACs, Boc-Lys-(AMC) substrate
HDAC4 = HDAC4 (Homo sapiens, UniProt P56524); assay: HDAC inhibition assay, HDAC4
SCC2095 cells [2] = assay: Western blotting of caspase- and HDAC-related proteins; assay type: cell-based, human; conditions: SCC2095, DNA damage biomarker, western blot
Description: The protein expression was performed as previously described. Proteins were resolved on 10% SDS-PAGE, then transferred to PVDF (Bio-Rad) membranes. After blocking with 5% skimmed milk in PBS containing 0.1% Tween 20, the membranes were probed with primary antibodies against interest target proteins at 4 °C overnight. The following primary antibodies were used: […], cleaved caspase 9, acetyl α-tubulin, Hsp90, Histone H2A.X, p38, p-^180Thr/^182Tyr p38, PPARγ, and p21 were purchased from Cell Signalling Technologies (Beverly, MA, USA); pro-caspase 8, Millipore; β-actin, Sigma-Aldrich (St. Louis, MO, USA). Then, the immunoblots were washed and exposed to HRP-conjugated secondary antibodies at room temperature for 1 h. The immunoblots were examined by enhanced chemiluminescence.

SCC2095 cells [3] = assay: ROS determination by flow cytometry (DCFH-DA probe); assay type: cell-based, human; conditions: SCC2095, 12 h or 24 h
Description: Cells (2 × 10^5) were treated with tested compounds in 6-well plates for 24 h or 48 h, then washed with ice-cold PBS twice and harvested with trypsin. Cells were incubated with 5 µL Annexin V- FITC/PI (BD Pharmingen, San Diego) for 15 min in the dark condition. Then, the cells were measured by BD FACSCanto flow cytometer (BD, Franklin Lakes, NJ). For ROS determination, DMSO or H2O2 or compound 7 g-treated cells were stained with the ROS probe (DCFH-DA; 5 µM) and detected the DCFH-DA fluorescence.

Sequence of HDAC4 (P56524 whole entry): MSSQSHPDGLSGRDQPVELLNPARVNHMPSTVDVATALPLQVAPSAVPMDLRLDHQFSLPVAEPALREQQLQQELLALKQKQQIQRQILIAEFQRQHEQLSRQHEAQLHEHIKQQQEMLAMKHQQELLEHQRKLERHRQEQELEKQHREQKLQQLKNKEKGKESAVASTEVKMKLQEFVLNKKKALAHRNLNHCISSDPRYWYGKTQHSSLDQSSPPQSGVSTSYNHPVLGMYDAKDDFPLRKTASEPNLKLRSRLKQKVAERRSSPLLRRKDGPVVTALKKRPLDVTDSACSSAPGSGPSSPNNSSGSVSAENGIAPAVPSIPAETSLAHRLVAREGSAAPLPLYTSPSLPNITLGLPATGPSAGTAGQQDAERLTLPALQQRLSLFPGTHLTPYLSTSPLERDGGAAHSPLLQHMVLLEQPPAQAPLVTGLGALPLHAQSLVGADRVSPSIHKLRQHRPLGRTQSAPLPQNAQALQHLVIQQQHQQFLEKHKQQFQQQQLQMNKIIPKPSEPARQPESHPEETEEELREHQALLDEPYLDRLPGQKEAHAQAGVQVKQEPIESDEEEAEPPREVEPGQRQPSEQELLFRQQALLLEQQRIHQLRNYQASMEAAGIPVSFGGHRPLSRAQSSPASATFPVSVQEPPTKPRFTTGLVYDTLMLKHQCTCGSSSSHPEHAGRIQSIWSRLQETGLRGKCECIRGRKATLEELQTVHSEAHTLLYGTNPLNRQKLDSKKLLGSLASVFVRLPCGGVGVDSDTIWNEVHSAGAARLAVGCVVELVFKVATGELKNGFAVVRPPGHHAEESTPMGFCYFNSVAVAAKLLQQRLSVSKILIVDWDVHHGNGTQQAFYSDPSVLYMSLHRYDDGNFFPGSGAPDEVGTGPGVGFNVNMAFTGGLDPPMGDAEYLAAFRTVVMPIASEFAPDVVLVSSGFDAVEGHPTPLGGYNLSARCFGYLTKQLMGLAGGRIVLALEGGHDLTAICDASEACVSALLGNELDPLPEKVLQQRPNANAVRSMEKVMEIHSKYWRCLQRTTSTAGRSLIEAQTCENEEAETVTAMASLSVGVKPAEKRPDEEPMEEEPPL
Sequence of HDAC9 (Q9UKV0 whole entry): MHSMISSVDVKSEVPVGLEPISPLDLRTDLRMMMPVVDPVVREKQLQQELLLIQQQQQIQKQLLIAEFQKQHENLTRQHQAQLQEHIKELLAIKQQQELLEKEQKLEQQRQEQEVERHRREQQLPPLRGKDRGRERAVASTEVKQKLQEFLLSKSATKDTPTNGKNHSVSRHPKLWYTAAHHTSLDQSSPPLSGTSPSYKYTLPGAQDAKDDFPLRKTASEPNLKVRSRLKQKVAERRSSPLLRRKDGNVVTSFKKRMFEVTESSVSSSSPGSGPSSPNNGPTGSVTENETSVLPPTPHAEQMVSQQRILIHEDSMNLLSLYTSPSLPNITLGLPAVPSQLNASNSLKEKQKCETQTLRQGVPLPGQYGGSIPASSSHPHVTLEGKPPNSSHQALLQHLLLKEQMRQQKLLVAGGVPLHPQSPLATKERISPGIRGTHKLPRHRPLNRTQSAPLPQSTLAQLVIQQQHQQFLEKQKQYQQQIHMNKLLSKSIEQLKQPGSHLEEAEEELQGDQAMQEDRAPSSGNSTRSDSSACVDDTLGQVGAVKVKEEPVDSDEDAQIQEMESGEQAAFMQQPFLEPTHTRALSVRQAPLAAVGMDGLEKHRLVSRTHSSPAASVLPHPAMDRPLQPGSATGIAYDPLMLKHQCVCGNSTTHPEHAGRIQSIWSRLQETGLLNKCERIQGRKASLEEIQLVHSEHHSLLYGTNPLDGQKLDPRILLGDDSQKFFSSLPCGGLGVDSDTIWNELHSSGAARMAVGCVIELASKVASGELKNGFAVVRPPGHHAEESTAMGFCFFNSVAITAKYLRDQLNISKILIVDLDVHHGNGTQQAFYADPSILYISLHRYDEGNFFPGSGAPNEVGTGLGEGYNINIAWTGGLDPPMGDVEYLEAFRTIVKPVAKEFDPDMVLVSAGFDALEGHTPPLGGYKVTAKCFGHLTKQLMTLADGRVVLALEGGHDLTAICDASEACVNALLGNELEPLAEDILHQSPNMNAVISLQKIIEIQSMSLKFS

| IC50 (HDAC9) | IC50 (HDAC6) | IC50 (HDAC7) | IC50 (HeLa nuclear HDACs) | IC50 (HDAC4) | HDAC6 inhibitory activity, fold less potent than LH4f (HDAC6; versus LH4f) | Structure (SMILES) | IC50 (SCC2095 cells [1]; Homo sapiens) | IC50 (SCC2095 cells [1]) | phosphorylation of Histone H2A.X (SCC2095 cells [2]) | ROS generation (SCC2095 cells [3]) |
| --- | --- | --- | --- | --- | --- | --- | --- | --- | --- | --- |
| 18.6 ± 0.96 µM | 7.6 ± 0.36 µM | 17.9 ± 0.92 µM | > 40 µM | > 40 µM |  | COc1cc(-c2cc(CN3c4ccccc4Sc4ccc(C#N)cc43)ccc2C(=O)NO)cc(OC)c1OC [Compound 19a, N-Hydroxy-4-[(2-cyano-10H-phenothiazin-10-yl)methyl]-2–(3,4,5-trimethoxyphenyl)benzamide] | 7.6 µM |  |  |  |
| 5.34 ± 0.4 µM | 4.03 ± 0.25 µM | 4.03 ± 0.16 µM | > 40 µM | 6.28 ± 0.13 µM |  | COc1ccc(-c2cc(CN3c4ccccc4Sc4ccc(C#N)cc43)ccc2C(=O)NO)cc1 [Compound 19b, N-Hydroxy-4-[(2-cyano-10H-phenothiazin-10-yl)methyl]-2–(4-methoxyphenyl)benzamide] | 1.8 µM |  |  |  |
| 0.72 ± 0.03 µM | 4.22 ± 0.18 µM | 0.54 ± 0.06 µM | > 40 µM | 1 ± 0.03 µM |  | N#Cc1ccc2c(c1)N(Cc1ccc(C(=O)NO)c(-c3ccc(F)cc3)c1)c1ccccc1S2 [Compound 19c, N-Hydroxy-4-[(2-cyano-10H-phenothiazin-10-yl)methyl]-2–(4-fluorophenyl)benzamide] | 2.6 µM |  |  |  |

More lines, now with the values behind:

| Structure (SMILES) | IC50 (HDAC9) | IC50 (HDAC6) | IC50 (HDAC7) | IC50 (HeLa nuclear HDACs) | IC50 (HDAC4) | HDAC6 inhibitory activity, fold less potent than LH4f (HDAC6; versus LH4f) | IC50 (SCC2095 cells [1]; Homo sapiens) | IC50 (SCC2095 cells [1]) | phosphorylation of Histone H2A.X (SCC2095 cells [2]) | ROS generation (SCC2095 cells [3]) |
| --- | --- | --- | --- | --- | --- | --- | --- | --- | --- | --- |
| O=C(NO)c1ccc(CN2c3ccccc3Sc3ccccc32)cc1-c1ccccc1 [Compound 7a, N-Hydroxy-4-[(10H-phenothiazin-10-yl)methyl]-2-phenylbenzamide] | 0.42 ± 0.06 µM | 3.2 ± 0.77 µM | 0.71 ± 0.01 µM | > 40 µM | 0.48 ± 0.04 µM |  | 3.9 µM |  |  |  |
| O=C(NO)c1ccc(CN2c3ccccc3Sc3ccc(Cl)cc32)cc1-c1ccccc1 [Compound 7b, N-Hydroxy-4-[(2-chloro-10H-phenothiazin-10-yl)methyl]-2-phenylbenzamide] | 0.2 ± 0.01 µM | 2.12 ± 0.37 µM | 0.23 ± 0.02 µM | > 40 µM | 0.28 ± 0.03 µM |  | 5 µM |  |  |  |
| O=C(NO)c1ccc(CN2c3ccccc3Sc3ccc(C(F)(F)F)cc32)cc1-c1ccccc1 [Compound 7c, N-Hydroxy-4-{[2-(trifluoromethyl)-10H-phenothiazin-10-yl]methyl}-2-phenylbenzamide] | 0.27 ± 0.02 µM | 3.19 ± 0.11 µM | 0.23 ± 0.05 µM | > 40 µM | 0.28 ± 0.04 µM |  | 6 µM |  |  |  |
| COc1ccc2c(c1)N(Cc1ccc(C(=O)NO)c(-c3ccccc3)c1)c1ccccc1S2 [Compound 7d, N-Hydroxy-4-[(2-methoxy-10H-phenothiazin-10-yl)methyl]-2-phenylbenzamide] | 0.64 ± 0.08 µM | 3.68 ± 0.41 µM | 0.71 ± 0.12 µM | > 40 µM | 0.8 ± 0.01 µM |  | 3.2 µM |  |  |  |
| CC(=NO)c1ccc2c(c1)N(Cc1ccc(C(=O)NO)c(-c3ccccc3)c1)c1ccccc1S2 [Compound 7f, N-Hydroxy-4-{2-[1-(hydroxyimino)ethyl]-10H-phenothiazin-10-yl}methyl-2-phenylbenzamide] | 0.32 ± 0.07 µM | 1.61 ± 0.09 µM | 0.41 ± 0.02 µM | > 40 µM | 0.58 ± 0.07 µM |  | 4.6 µM |  |  |  |
| NC(=O)c1ccc2c(c1)N(Cc1ccc(C(=O)NO)c(-c3ccccc3)c1)c1ccccc1S2 [Compound 7h] | 0.11 ± 0.01 µM | 0.75 ± 0.06 µM | 0.16 ± 0.01 µM | > 40 µM | 0.2 ± 0.05 µM | 150 fold | 3.6 µM |  |  |  |
| O=C(NO)c1ccc(CNC23CC4CC(CC(C4)C2)C3)cc1-c1ccccc1 [Compound 7i, N-Hydroxy-4-[(adamantan-1-ylamino)methyl]-2-phenylbenzamide] | 23.7 ± 4.14 µM | > 40 µM | 12.9 ± 2.14 µM | > 40 µM | 18.7 ± 2.16 µM |  | > 10 µM |  |  |  |
| O=C(NO)c1ccc(CN2CCCc3ccccc3C2)cc1-c1ccccc1 [Compound 7j, N-Hydroxy-4-[(1,3,4,5-tetrahydro-2H-benzo[c]azepin-2-yl)methyl]-2-phenylbenzamide] | 0.95 ± 0.05 µM | 18.22 ± 0.02 µM | 0.84 ± 0.03 µM | > 40 µM | 0.91 ± 0.07 µM |  | > 10 µM |  |  |  |
| COc1cc([C@@H]2c3cc4c(cc3[C@@H](O[C@@H]3O[C@@H]5CO[C@@H](C)O[C@H]5[C@H](O)[C@H]3O)[C@H]3COC(=O)[C@H]23)OCO4)cc(OC)c1O [Etoposide, reference compound] |  |  |  |  |  |  | 3.3 ± 0.5 µM | 2.3 µM |  |  |
| O=C(NCC1(c2nc(-c3ccccc3)cs2)CCOCC1)c1cccc(-c2noc(C(F)(F)F)n2)c1 [TMP269, reference compound] |  |  |  |  |  |  | 18.1 ± 3.8 µM |  | increased | increased |
